In patent US10350213B2 (AI Therapeutics, Inc., priority 2015, dated 2019) one finds IC50 data, which are given here for five compounds.

The test system of assay [1] is SUDHL-4 (Human Diffuse Large B Cell Lymphoma -GCB). Put plainly: CellTiterGlo cell viability assay. The class given is cell-based. To be noted: Homo sapiens, 72 h; SU-DHL-4; three-day assay; read-out: IC50 (nM) SU-DHL-4.
Assay [2] deals with WSU-DLCL2 (Human Diffuse Large B Cell Lymphoma -GCB). Put plainly: CellTiterGlo cell viability assay. The class given is cell-based. The following applies: Homo sapiens, WSUDLCL2, 72 h, three-day assay, read-out: IC50 (nM) WSU-DLCL2. A general note: Cellular ATP, detected with luciferase, serves as a proxy for viable cell number.

By IC50 is commonly meant the midpoint of a concentration-inhibition curve. Take `C[C@H](Nc1ncnc2nc[nH]c12)c1cc2cccc(Cl)c2c(=O)n1-c1ccccc1` [duvelisib]: the IC50 worked out at 13 nM in assay [1] and 863 nM in assay [2].
For the compound `CC[C@H](Nc1ncnc2[nH]cnc12)c1nc2cccc(F)c2c(=O)n1-c1ccccc1` [idelalisib], the figures for the IC50 in assay [1] and in assay [2] were 2030 nM and 6150 nM, respectively.
Regarding `O=C(/C=C\n1cnc(-c2cc(C(F)(F)F)cc(C(F)(F)F)c2)n1)NNc1cnccn1` [KPT-330], the results for the IC50 in assay [1] and in assay [2] were 93 nM and 165 nM, respectively.
Turning to `CC1(C)CCC(CN2CCN(c3ccc(C(=O)NS(=O)(=O)c4ccc(NCC5CCOCC5)c([N+](=O)[O-])c4)c(Oc4cnc5[nH]ccc5c4)c3)CC2)=C(c2ccc(Cl)cc2)C1` [ABT-199], the results for the IC50 in assay [1] and in assay [2] were 212 nM and 3370 nM, respectively.
For the compound `C=CC(=O)N1CCC[C@@H](n2nc(-c3ccc(Oc4ccccc4)cc3)c3c(N)ncnc32)C1` [ibrutinib], the IC50 is 718 nM in assay [1] and 747 nM in assay [2].
